Columns and labels:
SH-SY5Y cells = assay: Cytotoxicity by LDH in SH-SY5Y cells; assay type: cell-based
Method: The bimolecular fluorescence was examined 24-hour after transfection (n = 3, one-way ANOVA with Tukey’s post-hoc test, scale bar = 30 μm). (D) Quantification of the concentration (ng/ml) of extracellular αSyn monomer and oligomer, and intracellular αSyn oligomer in Tet-inducible SH-SY5Y cells that were pre-treated with TAT or CS2 peptide 30-minute before adding doxycycline (Dox) to induce αSyn expression. The concentration of αSyn species was determined by ELISA (n = 4, one-way ANOVA with Tukey’s post-hoc test; data are mean ± SEM). (E) Representative images of Mito-SOX staining in SH-SY5Y cells that were pre-treated with TAT or CS2 peptide and transfected with split Venus-αSyn vectors. Mitochondrial ROS production was determined by Mito-SOX staining after 24-hour transfection (n = 4, two-tailed Student’s t test, scale bar = 30 μm).
(G) Quantification of cytotoxicity examined by LDH assay in SH-SY5Y cells treated with indicated peptides (n = 3, one-way ANOVA with Tukey’s post-hoc test, data are mean ± SEM).

[1] = system: mThy1-hSNCA mice (midbrain); assay: Midbrain western blot / co-immunoprecipitation in mThy1-hSNCA mice; assay type: in vivo, mouse
Method: Tissues were homogenized and incubated on ice for 30 min in total lysis buffer (50 mM Tris–HCl, pH 7.5, 150 mM NaCl, 1% Triton X-100, and protease inhibitor). Tissues were then spun at 12,000 rpm for 10 min at 4 °C; the resulting supernatant was triton-soluble fraction. The pellet was further suspended in total lysis buffer with 1% SDS, sonicated and incubated at 100 °C for 3 min, and followed by 20-s vortex. After two more repeats of 100 °C incubation and vortex, the solution was spun at 12,000 rpm for 10 min at 4 °C; the resulting supernatant was triton-insoluble fraction.
Protein concentrations were measured using the Bradford assay. Proteins (30 µg) were then resuspended in Laemmni buffer, loaded on sodium dodecyl sulfate-polyacrylamide gel electrophoresis gels, and transferred to nitrocellulose membranes. The membranes were probed with the indicated antibodies and visualized by electrochemiluminescence.
(§1) C57BL/6 N-Tg (Thy1-SNCA)15Mjff/J (JAX: 017682) breeders (C57Bl/6NJ genetic background) were purchased from Jackson Laboratories. The mice were mated, bred, and genotyped in the animal facility of Case Western Reserve University. All mice were maintained at a 12-hour light/dark cycle (on 6 am, off 6 pm). All randomization and peptide treatments in mThy1-hSNCA mice were prepared by an experimenter not associated with the behavioral and neuropathology analysis. Only male mice were used in the study. mThy1-hSNCA transgenic mice and their age-matched WT littermates were implanted with a 28-day subcutaneous osmotic pump (Alzet, Cupertino CA, Model 2004) containing either TAT control peptide or CS2 peptide, which delivered the peptides at indicated rate (1 or 3 or 10 mg/kg/day). The pump was replaced once every four weeks. All mice were sacrificed at age of 10-month for neuropathology assessment.
Cells or tissues were lysed in total lysis buffer (50mM Tris-HCl, pH 7.5, 150mM NaCl, 1% Triton X-100, and protease inhibitor). Total protein lysates (800 µg) were incubated with the indicated antibodies overnight at 4 °C followed by the addition of protein A/G beads (sc-2003, Santa Cruz) for 2 h at 4 °C. Various recombinant αSyn and Clpp (500 ng) were incubated in in vitro interaction buffer (20mM Tris-HCl pH 7.5, 100mM KCl, 2mM MgCl2 and 0.1% Triton-X100) for 30 min at room temperature, and then incubated with indicated antibodies overnight at 4 °C followed by the addition of protein A/G beads for 2 h at 4 °C. The beads with immuno-precipitates were pulled down at 4000 g and washed four times with total lysis buffer/in vitro interaction buffer in the presence of 0.1% Triton X-100 and were analyzed by western blot analysis.

mThy1-hSNCA mice = assay: Rotarod test in mThy1-hSNCA mice; assay type: in vivo, mouse; conditions: 3 mg/kg/day s.c.; age of 10-month; n = 13–15 mice/group; vs TAT
Method: as §1
Mice were trained for the accelerating test on Day 1–3. On Day 5, motor coordination was assessed in TAT or CS2 treated mThy1-hSNCA transgenic mice and their age-matched wild-type littermates at age of 10-month, by measuring latency on a rotarod in an accelerated program for 300 s. Body weights of mThy1-hSNCA mice and wild-type littermates were recorded throughout the study period.
Fig. 7 CS2 treatment is protective in mThy1-hSNCA mouse model of PD. […]

ClpP = system: ClpP
Method: ClpP peptidase activity in vitro was measured as previously described (REF). Briefly, human recombinant ClpP (10 µM, obtained from Dr. Aaron Schimmer, Princes Margartet Cancer Centre, Canada) were incubated in the reaction buffer (50mM Tris PH 8.0, 200mM KCl, 1mM DTT, 2mM ATP) under 37 °C for 10 min. For co-incubation with αSyn, recombinant ClpP and WT or C-terminal truncated or NAC-domain truncated recombinant αSyn (S-1001-1, S-1012-1, S-1015-1, rPeptide) were pre-incubated for 30 min under room temperature. Fluorescent substrate of ClpP, ac-WLA-AMC (50 µM), were then added in the reaction buffer. The fluorescence signal was read using TECAN infinite M1000 up for 30 min at excitation/emission wavelength 345/445. ClpP peptidase activity were determined as the slope of the regression line.
(C) In vitro ClpP peptidase activity was measured in presence of TAT or CS2 peptide (50/100 µM). The fluorescence intensity of ac-WLA-AMC (50 µM), a fluorogenic substrate of ClpP, was measured (0-30 min). Quantification of ClpP activity (n = 5, one-way ANOVA with Tukey’s post-hoc test; data are mean ± SEM).

[2] = 3 and 10 mg/kg/day s.c., 8 weeks, n = 3 mice/group

With `CC(C)[C@H](NC(=O)CNC(=O)CNC(=O)CCCCCNC(=O)[C@H](CCCNC(=N)N)NC(=O)[C@H](CCCNC(=N)N)NC(=O)[C@H](CCCNC(=N)N)NC(=O)[C@H](CCC(N)=O)NC(=O)[C@H](CCCNC(=N)N)NC(=O)[C@H](CCCNC(=N)N)NC(=O)[C@H](CCCCN)NC(=O)[C@H](CCCCN)NC(=O)[C@H](CCCNC(=N)N)NC(=O)CNC(=O)[C@@H](N)Cc1ccc(O)cc1)C(=O)N[C@H](C(=O)N[C@H](C(=O)N[C@@H](C)C(=O)O)[C@@H](C)O)C(C)C` [CS2, TAT-C6-GGVVTA] the “cell death, A53T-αSyn” value (SH-SY5Y cells; SH-SY5Y stably overexpressing A53T-αSyn, 2-day treatment, 12-hour serum starvation, n = 4) was “significantly reduced cell death”, the “cell death, WT-αSyn” value (SH-SY5Y cells; SH-SY5Y stably overexpressing WT-αSyn, 2-day treatment, 12-hour serum starvation, n = 4) was “significantly reduced cell death” and the “cell viability, healthy cells” value (SH-SY5Y cells; healthy SH-SY5Y, 3 days, n = 3) was “did not affect cell viability”. For the same compound, the “ClpP–αSyn interaction in midbrain” value ([1]; 3 mg/kg/day s.c., anti-ClpP IP, n = 3 mice/group) was “abolish the interaction between ClpP and αSyn”, the “other mitochondrial matrix proteins in midbrain” value ([1]; 3 mg/kg/day s.c., western blot of LonP, ClpX, n = 3–5 mice/group) was “without affecting other mitochondrial matrix proteins” and the “ClpP expression in midbrain” value [1, 2] was “restored ClpP expression in the midbrain”. For the same compound, the “detergent-insoluble αSyn in midbrain” value [1, 2] was “reduced levels of soluble pS129-αSyn and detergent-insoluble αSyn”, the “soluble pS129-αSyn in midbrain” value [1, 2] was “reduced levels of soluble pS129-αSyn” and the “ClpP–αSyn interaction, 3 vs 10 mg/kg/day” value ([1]; s.c., comparison with 10 mg/kg/day) was “without disparity from 10 mg/kg/day”. For the same compound, the “motor coordination on rotarod (latency to fall)” value (mThy1-hSNCA mice) was “enhanced motor coordination”, the “ClpP peptidase activity restoration, WT αSyn” value (ClpP) was “restored ClpP peptidase activity” and the “ClpP peptidase activity, peptide alone” value (ClpP) was “neither TAT nor CS2 alone impaired ClpP activity”. For the same compound, the “ClpP peptidase activity restoration, A53T αSyn” value (ClpP; inhibition by A53T mutant αSyn, ac-WLA-AMC 50 µM, 0–30 min, representative of 4 experiments) was “restored ClpP peptidase activity”.
